In PubChem BioAssay AID1963835 (Molecular Pharmacology Branch, DTP, NCI, 2024):

Test system: 699152-130-R-J1-PDC complex spheroid viability
Experiment: Anticancer human tumor 699152-130-R-J1-PDC patient-derived pancreatic carcinoma cell line growth inhibition [POLQ]
Conditions: for IC50: curve of first compound; for viability, T/C: stronger effect = lower value
Outline: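 Patient-derived tumour cells were co-cultured with HUVEC and mesenchymal stem cells as multicellular spheroids at 37 °C. They were treated with POLQ inhibitors (novobiocin, ART-558, RP6685) alone or combined with other agents. Top concentrations were at or near clinical Cmax (otherwise 10 microM; SN-38 at 1 microM), decreasing in half-log steps.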

[1] = second compound 0.0316 µM, first compound 0.0316 µM
[2] = second compound 0.0316 µM, first compound 0.1 µM
[3] = second compound 0.0316 µM, first compound 0.316 µM
[4] = second compound 0.0316 µM, first compound 1 µM
[5] = second compound 0.0316 µM, first compound 3.16 µM
[6] = second compound 0.0316 µM, first compound 10 µM
[7] = second compound 0.1 µM, first compound 0.0316 µM
[8] = second compound 0.1 µM, first compound 0.1 µM
[9] = second compound 0.1 µM, first compound 0.316 µM
[10] = second compound 0.1 µM, first compound 1 µM
[11] = second compound 0.1 µM, first compound 3.16 µM
[12] = second compound 0.1 µM, first compound 10 µM
[13] = second compound 0.316 µM, first compound 0.0316 µM
[14] = second compound 0.316 µM, first compound 0.1 µM
[15] = second compound 0.316 µM, first compound 0.316 µM
[16] = second compound 0.316 µM, first compound 1 µM
[17] = second compound 0.316 µM, first compound 3.16 µM
[18] = second compound 0.316 µM, first compound 10 µM
[19] = second compound 1 µM, first compound 0.0316 µM
[20] = second compound 1 µM, first compound 0.1 µM
[21] = second compound 1 µM, first compound 0.316 µM
[22] = second compound 1 µM, first compound 1 µM
[23] = second compound 1 µM, first compound 3.16 µM
[24] = second compound 1 µM, first compound 10 µM
[25] = second compound 3.16 µM, first compound 0.0316 µM
[26] = second compound 3.16 µM, first compound 0.1 µM
[27] = second compound 3.16 µM, first compound 0.316 µM
[28] = second compound 3.16 µM, first compound 1 µM
[29] = second compound 3.16 µM, first compound 3.16 µM
[30] = second compound 3.16 µM, first compound 10 µM
[31] = second compound 10 µM, first compound 0.0316 µM
[32] = second compound 10 µM, first compound 0.1 µM
[33] = second compound 10 µM, first compound 0.316 µM
[34] = second compound 10 µM, first compound 1 µM
[35] = second compound 10 µM, first compound 3.16 µM
[36] = second compound 10 µM, first compound 10 µM
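Also: spheroids exposed to agents for 7 days before viability reading.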
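For viability, T/C in this document: percent of DMSO vehicle control viability so 100% = vehicle and 0% = no viable signal.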

COc1cccc2c1C(=O)c1c(O)c3c(c(O)c1C2=O)CC(O)(C(=O)CO)CC3OC1CC(N)C(O)C(C)O1 (stereo unspecified) + Nc1ccc(C#CCN(C(=O)Cc2ncc(C(F)(F)F)cc2C(F)(F)F)c2ccc(F)cc2)nn1
IC50 (second compound 0.0316 µM): 353 nM
IC50 (second compound 0.1 µM): 409 nM
IC50 (second compound 0.316 µM): 377 nM
IC50 (second compound 1 µM): 205 nM
IC50 (second compound 3.16 µM): 263 nM
IC50 (second compound 10 µM): 419 nM
viability, T/C [1]: 78%
viability, T/C [2]: 61.9%
viability, T/C [3]: 51.9%
viability, T/C [4]: 36.6%
viability, T/C [5]: 2.41%
viability, T/C [6]: 9.62%
viability, T/C [7]: 76.7%
viability, T/C [8]: 69.8%
viability, T/C [9]: 51.9%
viability, T/C [10]: 37.5%
viability, T/C [11]: 3%
viability, T/C [12]: 7.86%
viability, T/C [13]: 78.9%
viability, T/C [14]: 73.3%
viability, T/C [15]: 49.7%
viability, T/C [16]: 35.7%
viability, T/C [17]: 5.24%
viability, T/C [18]: 9.53%
viability, T/C [19]: 85%
viability, T/C [20]: 57.9%
viability, T/C [21]: 46.7%
viability, T/C [22]: 28.6%
viability, T/C [23]: 1.69%
viability, T/C [24]: 12.1%
viability, T/C [25]: 85.2%
viability, T/C [26]: 61.8%
viability, T/C [27]: 51.2%
viability, T/C [28]: 28.4%
viability, T/C [29]: 2.48%
viability, T/C [30]: 10.9%
viability, T/C [31]: 80.6%
viability, T/C [32]: 72%
viability, T/C [33]: 56.1%
viability, T/C [34]: 31.9%
viability, T/C [35]: 3.65%
viability, T/C [36]: 10.6%

O=C(c1cc(Cc2n[nH]c(=O)c3ccccc23)ccc1F)N1CCN(C(=O)C2CC2)CC1 + COC1C(OC(N)=O)C(O)C(Oc2ccc3c(O)c(NC(=O)c4ccc(O)c(CC=C(C)C)c4)c(=O)oc3c2C)OC1(C)C
IC50 (second compound 0.0316 µM): < 31.6 nM
IC50 (second compound 0.1 µM): < 31.6 nM
IC50 (second compound 0.316 µM): < 31.6 nM
IC50 (second compound 1 µM): < 31.6 nM
IC50 (second compound 3.16 µM): < 31.6 nM
IC50 (second compound 10 µM): < 31.6 nM
viability, T/C [1]: 38.8%
viability, T/C [2]: 37.8%
viability, T/C [3]: 35.3%
viability, T/C [4]: 40.3%
viability, T/C [5]: 35.7%
viability, T/C [6]: 34%
viability, T/C [7]: 42.7%
viability, T/C [8]: 37.2%
viability, T/C [9]: 38.5%
viability, T/C [10]: 43.9%
viability, T/C [11]: 37.2%
viability, T/C [12]: 29.8%
viability, T/C [13]: 40%
viability, T/C [14]: 41.5%
viability, T/C [15]: 40.6%
viability, T/C [16]: 36.5%
viability, T/C [17]: 33.6%
viability, T/C [18]: 32.3%
viability, T/C [19]: 41.6%
viability, T/C [20]: 39.7%
viability, T/C [21]: 36.9%
viability, T/C [22]: 37.4%
viability, T/C [23]: 39.6%
viability, T/C [24]: 35.1%
viability, T/C [25]: 39%
viability, T/C [26]: 42.9%
viability, T/C [27]: 41.3%
viability, T/C [28]: 40.7%
viability, T/C [29]: 36.8%
viability, T/C [30]: 36.9%
viability, T/C [31]: 38.3%
viability, T/C [32]: 36.2%
viability, T/C [33]: 36.2%
viability, T/C [34]: 40.2%
viability, T/C [35]: 42.9%
viability, T/C [36]: 31.1%

COc1cccc2c1C(=O)c1c(O)c3c(c(O)c1C2=O)CC(O)(C(=O)CO)CC3OC1CC(N)C(O)C(C)O1 (stereo unspecified) + Cc1cccc(N(C)C(=O)C2C(O)CCN2c2nc(C)cc(C(F)(F)F)c2C#N)c1
IC50 (second compound 0.0316 µM): 222 nM
IC50 (second compound 0.1 µM): 244 nM
IC50 (second compound 0.316 µM): 279 nM
IC50 (second compound 1 µM): 276 nM
IC50 (second compound 3.16 µM): 275 nM
IC50 (second compound 10 µM): 257 nM
viability, T/C [1]: 102%
viability, T/C [2]: 59%
viability, T/C [3]: 47.5%
viability, T/C [4]: 34%
viability, T/C [5]: 3.59%
viability, T/C [6]: 10.4%
viability, T/C [7]: 81.1%
viability, T/C [8]: 61.3%
viability, T/C [9]: 47%
viability, T/C [10]: 31.3%
viability, T/C [11]: 3.36%
viability, T/C [12]: 8.95%
viability, T/C [13]: 85.7%
viability, T/C [14]: 66%
viability, T/C [15]: 49.5%
viability, T/C [16]: 29.6%
viability, T/C [17]: 3.68%
viability, T/C [18]: 10.9%
viability, T/C [19]: 81.9%
viability, T/C [20]: 68.5%
viability, T/C [21]: 46.8%
viability, T/C [22]: 28.7%
viability, T/C [23]: 4.78%
viability, T/C [24]: 12.1%
viability, T/C [25]: 85%
viability, T/C [26]: 60.7%
viability, T/C [27]: 55.2%
viability, T/C [28]: 20%
viability, T/C [29]: 6.82%
viability, T/C [30]: 10.3%
viability, T/C [31]: 84.4%
viability, T/C [32]: 60.2%
viability, T/C [33]: 53.2%
viability, T/C [34]: 12%
viability, T/C [35]: 7.55%
viability, T/C [36]: 10.8%
